# The NIST ThermoML archive (doi:10.1021/je900646u)
# Numbers after ± are expanded uncertainties.
# Settings: Crystal; DTA
smiles,measurement,value
Nc1ccc(O)c(C(=O)O)c1 [5-aminosalicylic acid],Normal melting temperature,281.00 ± 0.5 °C
